Source: article PMC6678097, “Machilin A Inhibits Tumor Growth and Macrophage M2 Polarization Through the Reduction of Lactic Acid” (Cancers, 2019)

Experiments:
[1] = system: HT29 cells; test: Mitochondrial ROS, MitoSOX FACS; assay type: cell-based, human; settings: 24 h
Protocol: The production of mitochondrial ROS was determined by MitoSOX™ Red (Thermo Fisher Scientific, Waltham, MA, USA), respectively. Briefly, 5 μM MitoSOX™ Red was added to each cells cultured in conditioned medium and incubated at 37 °C for 10 min. The cells were then washed twice with PBS and the fluorescence intensity was analyzed using a BD FACS Canto II (BD Biosciences, San Jose, CA, USA) measuring excitation/emission at wavelength of 510/580 nm.

[2] = system: LLC tumors; test: Tumor allograft model, LLC cells (tumor growth, immunohistochemistry); assay type: in vivo, C57BL/6 mice
Protocol: LLC and CT26 cells were suspended separately in PBS (5 × 10^5 cells/100 µL PBS) and inoculated in subcutaneously on the back of 7-week-old C57BL/6 mice and BALB/c mice respectively (Orient Bio Inc., Seongnam, Korea; n = 7). One day after the inoculation with tumor cells, mice of the control group (n = 7) were intraperitoneally administrated 100 µL of PBS per day for 18 days. Each of the MA-treated mice were intraperitoneally administrated 0.02, 0.2, or 1 mg MA, respectively, in 100 µL PBS per 20 g body weight, each day for 18 days. All mice were euthanized 19 days after inoculation with the tumor cells, and the tumors were excised and weighed. Length (l) and width (w) of each tumor were measured using a caliper, and the respective volume (V) was calculated according to the formula V = [(l × w^2)/2]. Tumors were immediately removed from euthanized mice and prepared for histological examinations. To test liver and kidney toxicity of MA, at the end of the in vivo allograft experiment blood was collected from each mouse and serum was separated. Biochemical analyses of aspartate aminotransferase (AST), alanine aminotransferase (ALT), creatinine, and blood urea nitrogen (BUN) were performed using a commercial service (Green Cross Co., Yongin, Korea). All experimental procedures followed the Guidelines for the Care and Use of Laboratory Animals of the National Institutes of Health of Korea, and were approved by the Institutional Animal Care and Use Committee of Pusan National University, Republic of Korea (PNU-2018-1954, Date of approval: 27th June 2018).
Tumor specimens were immediately removed from euthanized mice, fixed in PBS with 3.7% formalin, and embedded in paraffin for immunohistochemical analyses. The paraffin sections were immunostained using an antibody specific to the endothelial cell marker CD31 (ab28364, Abcam, Cambridge, UK), macrophage marker CD68 (ab125212, Abcam, Cambridge, UK), and M2 phenotype macrophage marker CD206 (ab64693, Abcam, Cambridge, UK). The staining was visualized using a Dako EnVision kit (Dako, Santa Clara, CA, USA), and counterstained with hematoxylin.

[3] = system: RAW264.7 macrophage cells; test: M2 marker expression in macrophages treated with conditioned medium of MA-treated cancer cells; assay type: cell-based; settings: medium harvested from MA-treated (30 µM) cancer cells in hypoxic condition
Protocol: Total RNA of the cells was isolated using a GeneJET RNA Purification Kit (Thermo Fisher Scientific, Waltham, MA, USA). One microgram of RNA was reverse-transcribed using a RevertAid reverse transcriptase (Thermo Fisher Scientific, Waltham, MA, USA), and single-stranded cDNA was PCR-amplified using AccPower® PCR PreMix (Bioneer, Daejeon, Korea). The qRT-PCR was performed using the QuantiNova™ SYBR®Green PCR Kit (Qiagen, GmbH, Hilden, Germany) and a Qiagen Rotor-Gene® Q Real-Time PCR Detection System according to the manufacturer’s instructions. PCR products were separated using electrophoresis on 1.5% agarose gel containing ethidium bromide in 1 × Tris-acetate buffer and were visualized under UV light.
To investigate the formation of a capillary-like network of human umbilical vein endothelial cells (HUVECs) through the activation of tumor associated macrophages (TAMs) by lactate secreted by cancer cells, a tube formation assay was performed according to a previous study, with several modifications. For the preparation of conditioned media, HT29 colon cancer cells (3.5 × 10^5 cells) suspended in 2 mL of DMEM were seeded on 6-well plates, with or without addition of 30 µM MA, and incubated under normoxic or hypoxic conditions. […]

[4] = system: phospholipase Cγ1; parameters: method as in PMID 15554262; settings: cited from earlier work
[5] = target: LDHA (Homo sapiens, UniProt P00338); test: Surface plasmon resonance (SPR) biosensor analysis of LDHA binding; parameters: Full-length LDHA (residues 1–331) was obtained from cDNA by polymerase chain reaction (PCR); inferred from pET-28a vector and Ni-NTA purification; made in house; host or cells: E. coli BL21 (DE3); settings: 25 °C, read-out: apparent KD of binding to LDHA
Protocol: The apparent dissociation constants (KD) between LDHA and Machilin A were measured using a Biacore T100 biosensor (GE Healthcare, Chicago, IL, USA). […] A total of 150 μL LDHA (50 μg/mL) in 10 mM sodium acetate (pH 5.5) was coupled via injection for 15 min at 10 μL/min, followed by injection of 1 M ethanolamine to deactivate the residual amines. To measure kinetics at 25 °C, chemical compounds with concentrations ranging from 500 to 62 μM were prepared by dilution in running buffer (10 mM HEPES, 150 mM NaCl, 0.005% v/v surfactant P20, and 1% DMSO) at a pH of 7.4. The immobilized ligand was regenerated by injecting 10 μL of 50 mM NaOH at a rate of 10 μL/min during the cycles.

C[C@H](Cc1ccc2c(c1)OCO2)[C@@H](C)Cc1ccc2c(c1)OCO2 [MA, bis(3,4-methylenedioxy)-8,8’-lignan]
mitochondrial ROS [1]: induced mitochondrial ROS
expression of CD206 in macrophages in tumor tissues ([2]; LLC tumors of mice): markedly inhibited
formation of new vessels in tumors (CD31) ([2]; LLC tumors of mice): suppressed the formation of new vessels
presence of macrophages that infiltrated tumor tissues (CD68) ([2]; LLC tumors of mice): no change
volume, weight, and size of tumors ([2]; LLC, 1, 10, or 50 µg/g body weight intraperitoneally daily): significantly reduced
Arg1, CD206, YM1, and VEGF expression in macrophages [3]: reduction of Arg1, CD206, YM1, and VEGF expression
effect on phospholipase Cγ1 [4]: inhibiting phospholipase Cγ1
Kd [5]: 29 µM
